Data: patent publication US8153808B2, “Dihydropyridone amides as P2X7 modulators” (Roche Palo Alto LLC, priority 2008, dated 2012)

Biological target: T1, P2X7 (UniProt Q99572)
T1 sequence (Q99572 1-595): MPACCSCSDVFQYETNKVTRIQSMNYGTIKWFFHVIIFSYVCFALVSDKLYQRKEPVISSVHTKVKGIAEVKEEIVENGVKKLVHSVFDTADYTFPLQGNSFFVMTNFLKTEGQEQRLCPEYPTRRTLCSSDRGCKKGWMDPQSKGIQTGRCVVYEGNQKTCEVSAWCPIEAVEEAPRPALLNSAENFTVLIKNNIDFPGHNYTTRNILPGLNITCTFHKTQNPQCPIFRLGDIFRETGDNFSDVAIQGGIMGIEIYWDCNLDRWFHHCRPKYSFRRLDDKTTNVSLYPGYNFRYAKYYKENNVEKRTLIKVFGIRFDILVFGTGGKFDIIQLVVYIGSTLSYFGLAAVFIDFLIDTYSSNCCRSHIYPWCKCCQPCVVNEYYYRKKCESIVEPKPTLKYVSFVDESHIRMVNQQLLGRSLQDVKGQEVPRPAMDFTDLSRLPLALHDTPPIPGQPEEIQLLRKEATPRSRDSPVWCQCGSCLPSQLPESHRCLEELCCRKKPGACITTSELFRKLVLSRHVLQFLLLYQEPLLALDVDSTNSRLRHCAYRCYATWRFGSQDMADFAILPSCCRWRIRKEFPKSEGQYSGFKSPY
Assay: pIC50 values for P2X7 (Table 1)
Format: cell-based
Procedure: Intracellular Calcium Flux (FLIPR) Assay
Stock solutions of compounds were prepared from powders as a 10 mM DMSO stock solution. These solutions were stored at RT during the two week period of these experiments to prevent freeze-thaw of the DMSO stocks. The DMSO stocks were added to the appropriate assay buffer at a concentration of 10 μM, and then diluted serially to the final concentrations that were tested. […] The aqueous solutions of compounds as well as ATP (Sigma A7699) and BzATP (Sigma B6396) were prepared fresh for each day of experiment.
1321N1 cells stably expressing the full length human P2X7 gene (1321N1-hP2X7) and HEK293 cells stably expressing the full length rat P2X7 gene (HEK293-rP2X7) were obtained from the Roche Cell Culture Facility. 1321N1-hP2X7 cells were grown in Dulbecco's Modified Eagle's Medium (DMEM) high glucose supplemented with 10% FBS and 250 μg/mL G418. HEK293-rP2X7 cells were grown in DMEM/F-12 supplemented with 10% FBS, 1 mM CaCl2, 2 mM MgCl2, 2 mM L-Glutamine and 500 μg/ml G418. Cells were split such that they never became >70% confluent.
On the day prior to the experiment, 1321N1-hP2X7 or HEK293-rP2X7 cells were released into suspension with calcium-free PBS+Versene and washed by centrifugation with calcium-free PBS to remove the Versene. Cells were resuspended in growth medium at a density of 2.5×10^5 cells/mL and seeded into black walled, clear bottom 96 well plates (50,000 cells/well) approximately 18 hr prior to intracellular calcium flux experiments.
On the day of the experiment, plates were washed with FLIPR buffer (calcium- and magnesium-free Hank's Balanced Salt Solution (HBSS) supplemented with 10 mM Hepes, 2.5 mM probenecid and 2 mM calcium chloride) using a BIO-TEK 96 channel plate washer and incubated with […] fluo-3 dye at 37° C. for one hr. The dye was then removed by plate washing and the cells were allowed to equilibrate for 20 min at room temperature with antagonist or vehicle (FLIPR buffer). Agonist (100 μM BzATP final concentration for hP2X7; 5 μM BzATP final concentration or rP2X7) was added online with the FLIPR and fluorescence measurements made at 1 sec intervals for 60 sec followed by 3 sec intervals for a further 4 min (5 min total). A final addition of 5 μM ionomycin was made and the maximal BzATP-evoked fluorescence normalized to the maximal ionomycin-evoked fluorescence.

`COc1cc(Br)c(CC(=O)N2C=CC(=O)CC2C2CCCC2)cc1OC` (stereo not shown) [Compound 27, 1-[2-(2-Bromo-4,5-dimethoxy-phenyl)-acetyl]-2-cyclopentyl-2,3-dihydro-1H-pyridin-4-one] was tested, and the “pIC50 P2X7” value was 6.35.

For `COc1cc(Br)c(CC(=O)N2C=CC(=O)CC2c2ccc(C)cc2)cc1OC` (stereo not shown) [Compound 38, 1-[2-(2-Bromo-4,5-dimethoxy-phenyl)-acetyl]-2-p-tolyl-2,3-dihydro-1H-pyridin-4-one], the “pIC50 P2X7” value was 5.325.

For `COc1cc(CC(=O)N2C=CC(=O)CC2c2ccc(F)cc2)c(Br)cc1C` (stereo not shown) [Compound 31, 1-[2-(2-Bromo-5-methoxy-4-methyl-phenyl)-acetyl]-2-(4-fluoro-phenyl)-2,3-dihydro-1H-pyridin-4-one], the “pIC50 P2X7” value was 6.59.

In the case of `COc1ccc(CC(=O)N2C=CC(=O)CC2c2ccccc2)c(Br)c1` (stereo not shown) [Compound 8, 1-[2-(2-Bromo-4-methoxy-phenyl)-acetyl]-2-phenyl-2,3-dihydro-1H-pyridin-4-one], the “pIC50 P2X7” value is reported as 5.685.

For `COc1cc(Br)c(CC(=O)N2C=CC(=O)C[C@H]2c2ccc(F)cc2)cc1OC(F)F` [Compound 24, (S)-1-[2-(2-Bromo-5-difluoromethoxy-4-methoxy-phenyl)-acetyl]-2-(4-fluoro-phenyl)-2,3-dihydro-1H-pyridin-4-one], the “pIC50 P2X7” value was 6.305.

With `COc1cc(Br)c(CC(=O)N2C=CC(=O)C[C@H]2c2ccccc2)cc1OC` [Compound 13, (S)-1-[2-(2-Bromo-4,5-dimethoxy-phenyl)-acetyl]-2-phenyl-2,3-dihydro-1H-pyridin-4-one] the “pIC50 P2X7” value was 7.22.

For `COc1cc(Br)c(CC(=O)N2C=CC(=O)CC2C2CCCCC2)cc1OC` (stereo not shown) [Compound 10, 1-[2-(2-Bromo-4,5-dimethoxy-phenyl)-acetyl]-2-cyclohexyl-2,3-dihydro-1H-pyridin-4-one], the “pIC50 P2X7” value was 7.193.

With `COc1cc(Cl)c(CC(=O)N2C=CC(=O)C[C@H]2c2ccc(F)cc2)cc1OC` [Compound 51, (S)-1-[2-(2-Chloro-4,5-dimethoxy-phenyl)-acetyl]-2-(4-fluoro-phenyl)-2,3-dihydro-1H-pyridin-4-one] the “pIC50 P2X7” value was 7.77.

In the case of `CCOc1cc(CC(=O)N2C=CC(=O)C[C@H]2c2ccc(F)cc2)c(Br)cc1OC` [Compound 16, (S)-1-[2-(2-Bromo-5-ethoxy-4-methoxy-phenyl)-acetyl]-2-(4-fluoro-phenyl)-2,3-dihydro-1H-pyridin-4-one], the “pIC50 P2X7” value is reported as 7.17.

In the case of `COc1cc(I)c(CC(=O)N2C=CC(=O)C[C@@H]2c2ccccc2)cc1OC` [Compound 5, (R)-1-[2-(2-Iodo-4,5-dimethoxy-phenyl)-acetyl]-2-phenyl-2,3-dihydro-1H-pyridin-4-one], the “pIC50 P2X7” value is reported as 5.425.

In the case of `COc1cc(CC(=O)N2C=CC(=O)C[C@H]2c2ccc(F)cc2)c(Br)cc1OCC1CC1` [Compound 20, (S)-1-[2-(2-Bromo-4-cyclopropylmethoxy-5-methoxy-phenyl)-acetyl]-2-(4-fluoro-phenyl)-2,3-dihydro-1H-pyridin-4-one], the “pIC50 P2X7” value is reported as 6.08.

With `COc1cc(I)c(CC(=O)N2C=CC(=O)CC2c2ccc(F)cc2)cc1OC` (stereo not shown) [Compound 6, 2-(4-Fluoro-phenyl)-1-[2-(2-iodo-4,5-dimethoxy-phenyl)-acetyl]-2,3-dihydro-1H-pyridin-4-one] the “pIC50 P2X7” value was 6.97.

`COc1cc(Br)c(CC(=O)N2C=CC(=O)CC2c2cccc(Cl)c2)cc1OC` (stereo not shown) [Compound 25, 1-[2-(2-Bromo-4,5-dimethoxy-phenyl)-acetyl]-2-(3-chloro-phenyl)-2,3-dihydro-1H-pyridin-4-one] was tested, and the “pIC50 P2X7” value was 6.28.

`COc1cc(CC(=O)N2C=CC(=O)C[C@H]2c2ccc(F)cc2)c(Br)cc1C` [Compound 29, (S)-1-[2-(2-Bromo-5-methoxy-4-methyl-phenyl)-acetyl]-2-(4-fluoro-phenyl)-2,3-dihydro-1H-pyridin-4-one] was tested, and the “pIC50 P2X7” value was 6.625.

`COc1ccc(CC(=O)N2C=CC(=O)CC2c2ccc(F)cc2)c(OC)c1` (stereo not shown) [Compound 40, 1-[2-(2,4-Dimethoxy-phenyl)-acetyl]-2-(4-fluoro-phenyl)-2,3-dihydro-1H-pyridin-4-one] was tested, and the “pIC50 P2X7” value was 5.843.

For `COc1cc(F)c(CC(=O)N2C=CC(=O)C[C@H]2c2cccc(F)c2)cc1OC` [Compound 48, (S)-1-[2-(2-Fluoro-4,5-dimethoxy-phenyl)-acetyl]-2-(3-fluoro-phenyl)-2,3-dihydro-1H-pyridin-4-one], the “pIC50 P2X7” value was 6.55.

`COc1cc(Br)c(CC(=O)N2C=CC(=O)C[C@H]2c2ccc(F)cc2)cc1OCC1CC1` [Compound 18, (S)-1-[2-(2-Bromo-5-cyclopropylmethoxy-4-methoxy-phenyl)-acetyl]-2-(4-fluoro-phenyl)-2,3-dihydro-1H-pyridin-4-one] was tested, and the “pIC50 P2X7” value was 6.93.

For `COCCOc1cc(CC(=O)N2C=CC(=O)C[C@H]2c2ccc(F)cc2)c(Br)cc1F` [Compound 43, (S)-1-{2-[2-Bromo-4-fluoro-5-(2-methoxy-ethoxy)-phenyl]-acetyl}-2-(4-fluoro-phenyl)-2,3-dihydro-1H-pyridin-4-one], the “pIC50 P2X7” value was 7.89.

In the case of `COc1cc(I)c(CC(=O)N2C=CC(=O)CC2c2ccccc2C)cc1OC` (stereo not shown) [Compound 2, 1-[2-(2-Iodo-4,5-dimethoxy-phenyl)-acetyl]-2-o-tolyl-2,3-dihydro-1H-pyridin-4-one], the “pIC50 P2X7” value is reported as 5.963.
